In publication PMC11364775, “Ion occupancy of the selectivity filter controls opening of a cytoplasmic gate in the K2P channel TALK-2” (Nature Communications, 2024):

Key:
WT TREK-2 channels = biological target: T1, WT TREK-2 channels (Homo sapiens, UniProt P57789); assay: Conductance-voltage (G-V) curves from tail currents, V1/2 (intracellular Rb+); assay type: cell-based; conditions: TREK-2 WT + 1 mM TPenA
T1 construct: expressed in transfected cells; host or cells: Xenopus laevis oocytes (cRNA injection), excised inside-out patches
T1 sequence (P57789 1-538): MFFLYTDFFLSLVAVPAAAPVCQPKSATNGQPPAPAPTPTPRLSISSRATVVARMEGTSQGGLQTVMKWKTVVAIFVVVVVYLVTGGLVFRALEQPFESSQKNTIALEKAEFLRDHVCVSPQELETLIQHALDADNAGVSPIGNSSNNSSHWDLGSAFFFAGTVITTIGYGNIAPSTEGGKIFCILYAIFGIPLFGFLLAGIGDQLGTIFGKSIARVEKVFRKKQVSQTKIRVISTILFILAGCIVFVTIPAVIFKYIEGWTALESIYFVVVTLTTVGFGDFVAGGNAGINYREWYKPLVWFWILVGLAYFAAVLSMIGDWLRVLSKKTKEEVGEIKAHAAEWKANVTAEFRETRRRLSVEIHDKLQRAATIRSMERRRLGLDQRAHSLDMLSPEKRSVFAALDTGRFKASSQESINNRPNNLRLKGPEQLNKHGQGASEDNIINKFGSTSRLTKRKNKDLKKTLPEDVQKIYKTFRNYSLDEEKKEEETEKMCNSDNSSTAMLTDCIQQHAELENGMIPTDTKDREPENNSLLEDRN
Source text: The voltage-dependent activation mechanism of the SF gate in K2P channels allows to estimate the electrical work (ΔG = zFΔV1/2) required for pore opening by fitting the G–V curve to a Boltzmann equation. […] The open state represents the situation of both gates being simultaneously open but voltage can only exert force on the SF gate that functions as voltage sensor. […] We further tested whether mutations that open the lower gate (L262A and L264A) would affect the extracellular pH sensitivity. […] We further explored this concept of allosteric coupling using the mutations identified in the functional alanine screen of TM2 and TM4. […]
Conductance-voltage (G–V) relationships were determined from tail currents recorded at a holding potential (VH) of −80 mV after 300 ms depolarizing steps as indicated in the respective figure legend. Data were analyzed with a single Boltzmann fit following Eq. 6:6 GV=Imax/1+e^V−V1/2/slope+Ibase where V1/2 represents the voltage of half-maximal activation, s is the slope factor and Imax and Ibase represent the upper and lower asymptotes. Under appropriate experimental conditions, you can use slope to calculate the valence (charge) of the ion moving across the channel. Slope equals R * T/ z * F where R is the universal gas constant, T is temperature in K, F is the Faraday constant, and z is the valence.

[1] = biological target: T2, WT TREK-2 channels (human K2P10.1) (Homo sapiens, UniProt P57789); assay: Tail current deactivation kinetics with pore blocker (inside-out patch); assay type: cell-based
T2 construct: expressed in transfected cells; host or cells: Xenopus laevis oocytes (cRNA injection), excised inside-out patches
T2 sequence (P57789 1-538): T1 sequence (P57789 1-538)

CCCCC[N+](CCCCC)(CCCCC)CCCCC [TPenA, Tetra-pentyl-ammonium chloride]
Normalized current (WT TREK-2 channels; Voltage 0.000): 0.164 | Normalized current (WT TREK-2 channels; Voltage 0.005): 0.199 | Normalized current (WT TREK-2 channels; Voltage 0.010): 0.243 | Normalized current (WT TREK-2 channels; Voltage 0.015): 0.286 | Normalized current (WT TREK-2 channels; Voltage 0.020): 0.362 | Normalized current (WT TREK-2 channels; Voltage 0.025): 0.446 | Normalized current (WT TREK-2 channels; Voltage 0.030): 0.519 | Normalized current (WT TREK-2 channels; Voltage 0.035): 0.589 | Normalized current (WT TREK-2 channels; Voltage 0.040): 0.634 | Normalized current (WT TREK-2 channels; Voltage 0.045): 0.688 | Normalized current (WT TREK-2 channels; Voltage 0.050): 0.702 | Normalized current (WT TREK-2 channels; Voltage 0.055): 0.751 | Normalized current (WT TREK-2 channels; Voltage 0.060): 0.768 | Normalized current (WT TREK-2 channels; Voltage 0.065): 0.790 | Normalized current (WT TREK-2 channels; Voltage 0.070): 0.818 | Normalized current (WT TREK-2 channels; Voltage 0.075): 0.805 | Normalized current (WT TREK-2 channels; Voltage 0.080): 0.838 | Normalized current (WT TREK-2 channels; Voltage 0.085): 0.838 | Normalized current (WT TREK-2 channels; Voltage 0.090): 0.887 | Normalized current (WT TREK-2 channels; Voltage 0.095): 0.885 | Normalized current (WT TREK-2 channels; Voltage 0.100): 0.885 | Normalized current (WT TREK-2 channels; Voltage 0.105): 0.883 | Normalized current (WT TREK-2 channels; Voltage 0.110): 0.905 | Normalized current (WT TREK-2 channels; Voltage 0.115): 0.909 | Normalized current (WT TREK-2 channels; Voltage 0.120): 0.967 | Normalized current (WT TREK-2 channels; Voltage 0.125): 0.928 | Normalized current (WT TREK-2 channels; Voltage 0.130): 0.900 | Normalized current (WT TREK-2 channels; Voltage 0.135): 0.929 | Normalized current (WT TREK-2 channels; Voltage 0.140): 0.939 | Normalized current (WT TREK-2 channels; Voltage 0.145): 0.922 | Normalized current (WT TREK-2 channels; Voltage 0.150): 0.939 | Normalized current (WT TREK-2 channels; Voltage -0.005): 0.135 | Normalized current (WT TREK-2 channels; Voltage -0.010): 0.126 | Normalized current (WT TREK-2 channels; Voltage -0.015): 0.111 | Normalized current (WT TREK-2 channels; Voltage -0.020): 0.109 | Normalized current (WT TREK-2 channels; Voltage -0.025): 0.110 | Normalized current (WT TREK-2 channels; Voltage -0.030): 0.103 | Normalized current (WT TREK-2 channels; Voltage -0.035): 0.102 | Normalized current (WT TREK-2 channels; Voltage -0.040): 0.096 | Normalized current (WT TREK-2 channels; Voltage -0.045): 0.095 | Normalized current (WT TREK-2 channels; Voltage -0.050): 0.089 | Normalized current (WT TREK-2 channels; Voltage -0.055): 0.092 | Normalized current (WT TREK-2 channels; Voltage -0.060): 0.088 | Normalized current (WT TREK-2 channels; Voltage -0.065): 0.090 | Normalized current (WT TREK-2 channels; Voltage -0.070): 0.088 | Normalized current (WT TREK-2 channels; Voltage -0.075): 0.085 | Normalized current (WT TREK-2 channels; Voltage -0.080): 0.084 | Normalized current (WT TREK-2 channels; Voltage -0.085): 0.087 | Normalized current (WT TREK-2 channels; Voltage -0.090): 0.084 | Normalized current (WT TREK-2 channels; Voltage -0.095): 0.081 | effect of TPenA inhibition on tail current kinetics ([1]; TREK-2): no effect | deactivation time constant τ of tail currents ([1]; intracellular Rb+ with 50 µM TPenA): 11.2 ± 1.4 ms
